Measurements taken from article PMC9416111, “Synthesis and Biological Activity of Unsymmetrical Monoterpenylhetaryl Disulfides” (Molecules, 2022).
Values after ≈ are worked out from the molar mass of the structure shown.

How the values were obtained:
[1] = test system: S. aureus ATCC 29213 (MSSA); test: Antibacterial MIC, broth microdilution (EUCAST); format: cell-based, Staphylococcus aureus; conditions: Staphylococcus aureus, 24 h, Mueller-Hinton broth
Method: (§1) Minimum inhibitory concentrations (MICs) of compounds was determined by the broth microdilution assay in 96-well plates (Eppendorf, Hamburg, Germany) according to the EUCAST rules for antimicrobial susceptibility testing in full Mueller-Hinton broth (MH). The concentrations of compounds to be tested ranged from 1 to 2048 µg/mL. The MIC was determined as the lowest concentration of an antibiotic for which no visible bacterial growth could be observed after 24 h of incubation.

[2] = test system: S. aureus MRSA clinical isolate; test: Antibacterial MIC, broth microdilution (EUCAST); format: cell-based, Staphylococcus aureus; conditions: Staphylococcus aureus, MRSA; 24 h, Mueller-Hinton broth
Method: as §1

P. aeruginosa ATCC 27853 = test: Antibacterial MIC, broth microdilution (EUCAST); format: cell-based, Pseudomonas aeruginosa; conditions: Pseudomonas aeruginosa, ATCC27853; 24 h, Mueller-Hinton broth
Method: as §1

in vitro = conditions: dog
[3] = test system: influenza virus A/Puerto Rico/8/34 (H1N1); test: Antiviral cell protection assay in MDCK cells; format: cell-based; conditions: H1N1, MDCK, 72 h
[4] = test system: red blood cells from laboratory mice; test: Erythrotoxicity (hemolytic activity); format: cell-based; conditions: 100 μM, 1, 3 and 5 h of incubation
Method: No significant hemolytic activity was detected at a concentration of 1 μM (Figure 3B).
(§2) To evaluate the erythrotoxicity, antioxidant and membrane-protective activity of the compounds, we used 0.5% (v/v) suspension of red blood cells from laboratory mice in phosphate-buffered saline (PBS, pH 7.4). The test substances were previously dissolved in ethanol. Erythrotoxicity (hemolytic activity) was evaluated by the degree of hemolysis of red blood cells 1–5 h after the introduction of solutions of the compounds. Membrane-protective and antioxidant activity was determined by the degree of inhibition of H2O2-induced hemolysis. For this purpose, 30 min after the erythrocyte suspension was added to the solutions of the test compounds, hemolysis was initiated with a solution of hydrogen peroxide (0.006%). Then, the reaction mixture was incubated in a thermostatic shaker Biosan ES-20 with slow stirring at 37 °C for 5 h. An aliquot was taken from the incubation medium every hour, centrifuged for 5 min (1600× g), and the degree of hemolysis was determined by the hemoglobin content in the supernatant on a ThermoSpectromic Genesys 20 spectrophotometer (Thermo Fisher Scientific, Waltham, MA, USA) at 524 nm. The percentage of hemolysis was calculated in relation to the complete hemolysis of the sample. Each experiment was designed with 4–8 replicates. Statistical data processing and charting were performed using the Microsoft Office Excel 2007 software package (Microsoft, Redmond, WA, USA). The data represent the mean ± SE.
Figure 3 Hemolytic activity of unsymmetrical disulfides at the concentration of 100 μM (A) and 1 μM (B) after 1, 3 and 5 h of incubation.

[5] = test system: S. typhimurium TA98, TA100 and TA102 strains; test: Mutagenicity in the Ames test (spot-test); format: cell-based, Salmonella typhimurium; conditions: strain in which mutagenicity was found; NF = not found
Method: The mutagenicity of compounds was evaluated in the Ames test with S. typhimurium TA98, TA100 and TA102 strains as described in [38]. The spot-test modification has been applied to avoid false-negative results driven with antibacterial activity of compounds. The tested compound was considered to be mutagenic if the number of revertant colonies increased more than 2 times close to the filter paper with compound.

[6] = Cytotoxicity, MTT on EBL cells; conditions: bovine, EBL cells (embryonic bovine lung)
Method: Cytotoxicity of compounds was determined using the microtetrazolium test (MTT) on EBL cells. The cells were cultured in DMEM—Dulbecco’s Modified Eagle’s Medium (Sigma Aldrich, St. Louis, MO, USA) supplemented with 10% FBS, 2 mM L-glutamine, 100 µg/mL penicillin and 100 µg/mL streptomycin. Cells were seeded in 96-well plates with the density of 3000 cells per well and left overnight to allow for the attachment. Cells were next cultured at 37 °C and 5% CO2 in the presence of compounds of interest at various concentrations from 1.25 to 160 µg/mL. After 24 h of cultivation the cells were subjected to MTT-assay. The formazan was solubilized by DMSO and the optical density was measured on Tecan Infinite 200Pro at 570 nm. The concentration required to inhibit cellular dehydrogenase activity by 50% (CC50 value) was calculated by using GraphPad Prism 6.0 software (GraphPad software, San Diego, CA, USA).

[7] = test system: Candida albicans 703 clinical isolate; test: Antifungal MIC, broth microdilution (CLSI M27-A3); conditions: Candida albicans, 24 h, read-out: MIC C. albicans 703 Clinical Isolate
[8] = Antioxidant activity: inhibition of lipid peroxidation (TBA-RS) in brain homogenates; set-up: species or system mice; conditions: 100 μM and 1 mM, 1 h after initiation of LPO (ascorbate/Fe2+)
Method: The antioxidant activity of monoterpenylhetaryl disulfides was evaluated for their in vitro ability to inhibit lipid peroxidation (LPO) processes in the brain lipids of laboratory mice. The brain was removed and homogenized (10%) in physiological saline (pH = 7.4) and centrifuged for 10 min. Then, an aliquot of the supernatant (S1) was taken, into which the test compounds were added as solutions in ethanol (final concentration of 100 μM and 1 mM). After 30 min, LPO was initiated by adding a freshly prepared solution of FeSO4 and ascorbic acid. Then, the test samples were incubated for one hour at 37 °C with slow stirring in a thermostatic Biosan ES-20 shaker (Biosan, Riga, Latvia). The concentration of LPO secondary products reacting with 2-thiobarbituric acid (thiobarbituric acid reactive substances, TBA-RS) was determined using ThermoSpectromic Genesys 20 spectrophotometer (Thermo Fisher Scientific, Waltham, MA, USA) at λ = 532 nm, the extinction coefficient 1.56 × 10^5 M^−1cm^−1 was used for calculations.
Figure 2 Effect of unsymmetrical disulfides and Trolox (T) at concentrations of 100 μM and 1 mM on the content of TBA-RS in the brain homogenate in an hour after the initiation of LPO (ascorbate/Fe^2+ initiators). C—control sample containing no test compounds; I—intact sample in which LPO was not initiated.

[9] = test system: red blood cells from laboratory mice; test: Membrane-protective activity: H2O2-induced hemolysis of erythrocytes; format: cell-based; conditions: 1 μM, 1–5 h
Method: The membrane-protective properties of the compounds were evaluated in the model of oxidative hemolysis of erythrocytes at a concentration of 1 μM in order to avoid the effect of hemolytic activity.
as §2
Figure 4 Effect of unsymmetrical disulfides and Trolox (T) at a concentration of 1 μM on the level of H2O2-induced hemolysis of erythrocytes after 1–5 h of incubation.

Q: Which MIC [1] does the source give for `CC(C)[C@@H]1CC[C@@H](C)C[C@@H]1SSc1nc2ccccc2s1` [Compound 1a, 2-(((1S,2S,5R)-2-isopropyl-5-methylcyclohexyl)disulfanyl)benzo[d]thiazole] here?
A: The MIC was 16 µg/mL (≈ 47.4 µM).

Q: What about the MIC [2] of the same molecule?
A: Its MIC is 16 µg/mL (≈ 47.4 µM).

Q: What about the MIC (P. aeruginosa ATCC 27853) of the same molecule?
A: The MIC was 16 µg/mL (≈ 47.4 µM).

Q: What about the CC50 (in vitro) of the same molecule?
A: The CC50 was 36 ± 3 µM.

Q: What about the IC50 [3] of the same molecule?
A: Its IC50 is 5 ± 1 µM.

Q: And the “hemolytic activity (erythrotoxicity), in words” value [4]?
A: Its value is “Low hemolytic activity”.

Q: What about the “Mutagenicity in the Ames Test” value [5] of the same molecule?
A: Its value is “TA 100”.

Q: What about the CC50 at 24 h [6] of the same molecule?
A: The CC50 at 24 h was 11.7 µg/mL (≈ 34.7 µM).

Q: What about the MIC [7] of the same molecule?
A: Its MIC is 512 µg/mL (≈ 1520 µM).

Q: For `Cc1cc(C)nc(SS[C@H]2C[C@H](C)CC[C@H]2C(C)C)n1` [Compound 1b, 2-(((1S,2S,5R)-2-isopropyl-5-methylcyclohexyl)disulfanyl)-4,6-dimethylpyrimidine], which MIC [1] is on record?
A: The MIC was 16 µg/mL (≈ 51.5 µM).

Q: And the MIC [2]?
A: Its MIC is 32 µg/mL (≈ 103 µM).

Q: What about the MIC (P. aeruginosa ATCC 27853) of the same molecule?
A: The MIC was 32 µg/mL (≈ 103 µM).

Q: And the CC50 (in vitro)?
A: The CC50 was 29 ± 2 µM.

Q: What about the IC50 [3] of the same molecule?
A: Its IC50 is 13 ± 2 µM.

Q: What about the “Mutagenicity in the Ames Test” value [5] of the same molecule?
A: The value was “TA 102”.

Q: What about the CC50 at 24 h [6] of the same molecule?
A: The CC50 at 24 h was 14 µg/mL (≈ 45.1 µM).

Q: What about the MIC [7] of the same molecule?
A: Its MIC is 512 µg/mL (≈ 1650 µM).

Q: With `COC(=O)c1cccnc1SS[C@H]1C[C@H]2C[C@@H]([C@@H]1CO)C2(C)C` [Compound 3c, Methyl 2-(((1S,2R,3S,5R)-2-(hydroxymethyl)-6,6-dimethylbicyclo[3.1.1]hept-3-yl)disulfanyl)pyridine-3-carboxylate] as the molecule, how does the MIC [1] read?
A: The MIC was 64 µg/mL (≈ 181 µM).

Q: And the MIC [2]?
A: The MIC was 32 µg/mL (≈ 90.5 µM).

Q: And the MIC (P. aeruginosa ATCC 27853)?
A: The MIC was 1020 µg/mL (≈ 2900 µM).

Q: What about the “antioxidant activity (inhibition of oxidation of brain lipids), in words” value [8] of the same molecule?
A: The value was “highest antioxidant activity”.

Q: What about the CC50 (in vitro) of the same molecule?
A: The CC50 was over 283 µM.

Q: What about the “membrane-protective activity, in words” value [9] of the same molecule?
A: The value was “most active”.

Q: And the IC50 [3]?
A: The IC50 was 255 ± 31 µM.

Q: What about the CC50 at 24 h [6] of the same molecule?
A: The CC50 at 24 h was 8.1 µg/mL (≈ 22.9 µM).

Q: And the MIC [7]?
A: The MIC was 1020 µg/mL (≈ 2900 µM).

Q: Which MIC [1] does the source give for `COC(=O)c1cccnc1SSC[C@@H]1[C@@H](O)C[C@H]2C[C@@H]1C2(C)C` [Compound 4c, Methyl 2-((((1S,2S,3S,5R)-3-hydroxy-6,6-dimethylbicyclo[3.1.1]heptan-2-yl)methyl)disulfanyl)pyridine-3-carboxylate] here?
A: The MIC was 1020 µg/mL (≈ 2900 µM).

Q: And the MIC [2]?
A: The MIC was over 1020 µg/mL.

Q: What about the MIC (P. aeruginosa ATCC 27853) of the same molecule?
A: The MIC was over 1020 µg/mL.

Q: And the “antioxidant activity (inhibition of oxidation of brain lipids), in words” value [8]?
A: The value was “highest antioxidant activity”.

Q: And the CC50 (in vitro)?
A: Its CC50 is 40 ± 2 µM.

Q: And the “membrane-protective activity, in words” value [9]?
A: The value was “most active”.

Q: And the IC50 [3]?
A: The IC50 was 34 ± 4 µM.

Q: What about the MIC [7] of the same molecule?
A: Its MIC is 1020 µg/mL (≈ 2900 µM).
